According to article PMC8022858, “Discovery of bone morphogenetic protein 7-derived peptide sequences that attenuate the human osteoarthritic chondrocyte phenotype” (Molecular Therapy. Methods & Clinical Development, 2021):

Experiments:
[1] = test system: OA-HACs with NKX3-2 knockdown; assay: NKX3-2 siRNA knockdown and peptide treatment, hypertrophy gene expression; assay type: cell-based, human; conditions: OA-HAC pool (n = 4 donors), then 100 nM peptide 24 h (Figure 5A); for chondrocyte hypertrophy-inhibiting bioactivity in control (scrambled siRNA) condition: 100 nM siRNA 24 h; for rescue of hypertrophy-inducing consequences of NKX3-2 knockdown: NKX3-2 siRNA 100 nM 24 h
From the text: A chondrocyte phenotypic consequence of exposure to peptides p[63−82] or p[113−132] is an overall attenuation of hypertrophy. Previously, we[17]^,[27] and others[29]^,[30] recognized NKX3-2 (BAPX1) as an important negative regulator of chondrocyte hypertrophy, and the hypertrophy-inhibiting action of BMP7 on OA-HACs is, at least in part, mediated via NKX3-2.[27] Taking into consideration that the ability to induce NKX3-2 expression was one of the screening criteria for the identification of the here-described, BMP7-derived peptides (Figures 2 and S2), we next investigated whether NKX3-2 is involved in the bioactivity of peptides p[63−82] and p[113−132]. By means of small interfering (si)RNA transfection, NKX3-2 expression was reduced in a pool of OA-HACs. […] Treatment of control conditions (scrambled siRNA) with peptide p[63−82] or p[113−132]confirmed the peptides’ chondrocyte hypertrophy-inhibiting bioactivity (Figure 5A).
Figure 5 Molecular characterization of peptides p[63−82] and p[113−132] (A) A pool of OA-HACs (n = 4 donors) was transfected with a scrambled siRNA or with an NKX3-2 siRNA (100 nM siRNA) and cultured for 24 h. Cultures were then exposed to peptide p[63−82] or p[113−132] (100 nM peptide). Samples were harvested 24 h later and analyzed for the expression of the indicated mRNAs (normalized to 28S rRNA). (B) SW1353 chondrocytic cells were transfected with BRE (SMAD1/5/8 reporter) or CAGA12 (SMAD2/3 reporter) firefly luciferase-reporter plasmids. A CMV-Gaussia plasmid was cotransfected as a transfection control. Cells were then cultured for 24 h and subsequently exposed to control, p[63−82], or p[113−132] for 8 h. Firefly and Gaussia bioluminescence were measured in cells and medium (respectively), and relative light units (RLUs) of firefly luciferase were normalized for the Gaussia luciferase signal. The normalized firefly luciferase signal of the control condition was set at 1, and peptide conditions were calculated relative to the control condition (FL/GL). Error bars represent mean ± SEM; statistical significance for peptide conditions versus siScrambled or siNKX3-2 (A) or control condition (B) as determined by unpaired two-tailed Student’s t test is represented as ∗p < 0.05, ∗∗p < 0.01, and ∗∗∗p < 0.001. […] An alanine-scanning bioactivity score (sum of the fold change gene expression of COL10A1, ALPL, MMP13, and COL2A1 plus NKX3-2 of the alanine-substituted peptides versus the wild-type p[63−82] peptide) was calculated for each alanine substitution in the amino acid sequence of peptide p[63−82] and is represented by the height of each letter on the y axis (data in Figure S4). […]

[2] = test system: BRE reporter (SMAD1/5/8 dependent) in SW1353 chondrocytic cells; assay: BRE firefly luciferase reporter assay; assay type: cell-based; conditions: 8 h peptide exposure, firefly normalized to Gaussia luciferase, relative to control (Figure 5B)
Protocol: Figure 5 Molecular characterization of peptides p[63−82] and p[113−132] (A) A pool of OA-HACs (n = 4 donors) was transfected with a scrambled siRNA or with an NKX3-2 siRNA (100 nM siRNA) and cultured for 24 h. Cultures were then exposed to peptide p[63−82] or p[113−132] (100 nM peptide). Samples were harvested 24 h later and analyzed for the expression of the indicated mRNAs (normalized to 28S rRNA). (B) SW1353 chondrocytic cells were transfected with BRE (SMAD1/5/8 reporter) or CAGA12 (SMAD2/3 reporter) firefly luciferase-reporter plasmids. A CMV-Gaussia plasmid was cotransfected as a transfection control. Cells were then cultured for 24 h and subsequently exposed to control, p[63−82], or p[113−132] for 8 h. Firefly and Gaussia bioluminescence were measured in cells and medium (respectively), and relative light units (RLUs) of firefly luciferase were normalized for the Gaussia luciferase signal. The normalized firefly luciferase signal of the control condition was set at 1, and peptide conditions were calculated relative to the control condition (FL/GL). Error bars represent mean ± SEM; statistical significance for peptide conditions versus siScrambled or siNKX3-2 (A) or control condition (B) as determined by unpaired two-tailed Student’s t test is represented as ∗p < 0.05, ∗∗p < 0.01, and ∗∗∗p < 0.001. […]

| Substance | chondrocyte hypertrophy-inhibiting bioactivity in control (scrambled siRNA) condition [1] | rescue of hypertrophy-inducing consequences of NKX3-2 knockdown [1] | BRE reporter activity [2] |
| --- | --- | --- | --- |
| H-AAYYSEGESAFPLNSYMNAT-OH [p[63−82]] | confirmed | did not show rescue | induce |
| H-SVLYFDDSSNVILKKYRNMV-OH [p[113−132]] | confirmed | did not show rescue | induce |
